The assay deals with 485176-168-R4-J1-PDC spheroids with HUVEC/MSC, viability. The assay can be described thus: Anticancer human tumor 485176-168-R4-J1-PDC patient-derived pancreatic adenocarcinoma cell line growth inhibition [GQUAD]. To be noted: for viability, T/C: stronger effect = lower value. The text has this: DNA G-quadruplex Stabilizer Agents in Combinations in Complex Spheroids
A high-throughput screen of multi-cell type tumor spheroids was designed to identify active combinations of DNA G-quadruplex stabilizer agents and targeted small molecules. Complex spheroids include a stromal component modeled by human endothelial cells (HUVEC) and fibroblasts modeled by human mesenchymal stem cells (MSCs). The concentration ranges selected for each drug and investigational agent were based upon clinically achievable concentrations if the clinical Cmax of the agent was known.
Compounds. The drugs and investigational agents: pidnarulex (CX-5461; NSC782164), APTO-253 (NSC789042), BRACO-19 (NSC847499), peposertib (NSC802822), ceralasertib (NSC780249), elimusertib (NSC800525), camonsertib (NSC841442), AZD-1390 (NSC803789), olaparib (NSC753686), talazoparib (NSC767125), ART-558 (NSC835418), sotorasib (NSC818433), MRTX-1133 (NSC836407), SN-38 (NSC673596), topotecan (NSC609699), etoposide (NSC141540), doxorubicin (NSC123127), gemcitabine (NSC613327), 5-fluorouracil (NSC19893), paclitaxel (NSC125973), vemurafenib (NSC761431), panobinostat (NSC761190), R-306465 (JNJ-16241199; NSC773264), adavosertib (NSC754352), TP-3654 (NSC805149), carboplatin (NSC241240), KSQ-4279 (NSC840948), and staurosporine (NSC755774) were obtained from the National Cancer Institute (NCI) Developmental Therapeutics Program Chemical Repository (34). The FDA-approved anticancer drug set is available from the NCI Developmental Therapeutics Program. […] The stock solutions were prepared in dimethyl sulfoxide (DMSO, Sigma-Aldrich, St. Louis, MO, cat. D2650) at 800-fold the tested concentration and stored at -70 degrees C prior to their use. All drugs and investigational agents were tested over a range starting from a high concentration at or near the clinical Cmax and decreasing in half-log increments. If the clinical Cmax for an agent had not been determined, the highest concentration tested was 10 microM.
2.3 Cell Culture. All cells were maintained in an incubator at 37 degrees C and 5% CO2 with 95% humidity. The PDC lines were cultured according to standard operating procedures established by the NCI PDMR. All PDCs were thawed and cultured in Matrigel-coated flasks prepared with a working solution of 1X Ham's F-12 nutrient mix, without supplementation (Invitrogen, cat. 11765054), 100 U/mL penicillin-streptomycin (Invitrogen, cat. 15140122), and 2.5% Matrigel (Corning Inc., cat. 354248) for the first three passages. The 857933-349-R-J2-PDC line was cultured in 6C/Colon 1B media, which includes advanced DMEM/F-12 (Thermo Fisher Scientific, cat. 12634028), 10 mM HEPES (Thermo Fisher Scientific, cat. 15630080), 1X GlutaMAX supplement (Thermo Fisher Scientific, cat. 35050061), 0.1 mg/mL primocin (InvivoGen, cat. ant-pm-2), 10% defined fetal bovine serum, heat inactivated (HyClone Laboratories Inc., cat. SH30070.03HI), 50% L-WRN conditioned media (ATCC, cat. CRL-3276), 1.25 mM N-Acetyl-L-cysteine (Sigma-Aldrich, cat. A9165), 10 mM nicotinamide (Sigma-Aldrich, cat. N0636), 1X B-27 supplement (Thermo Fisher Scientific, cat. 17504044), 1X N-2 supplement (Thermo Fisher Scientific, cat. 17502048), 10 microM Y-27632 dihydrochloride (Tocris Bioscience, cat. 1254), and 50 ng/mL human EGF recombinant protein (Thermo Fisher Scientific, cat. PHG0311). The 485176-168-R4-J1-PDC line was cultured in Panc media, which includes all 6C/Colon 1B media components plus 100 ng/mL human FGF-10 (Thermo Fisher Scientific, cat. 100-26), 500 nM SB-431542 (Selleckchem, cat. S1067), and gastrin (Tocris, cat. 3006).
[…]

SMILES strings stand for the structures. pIC50: −log10 of the molar value. Several values for one entry are separate records, joined by “and”; a condition that tells them apart may be missing. Equal values may be shown once. A value given as a limit tells only on which side of the number the result lay.
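Note: spheroids exposed to compounds for seven days before readout.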
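Throughout, for viability, T/C: percent viability relative to DMSO vehicle control wells as 100%.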

For the compound `Cn1ncnc1[C@H]1c2n[nH]c(=O)c3cc(F)cc(c23)N[C@@H]1c1ccc(F)cc1` + Cc1cnc(CNC(=O)c2c(=O)c3ccc(N4CCCN(C)CC4)nc3n3c2sc2ccccc23)cn1, the pIC50 (in general, the IC50 on a negative log10 scale, so that one unit is a factor of ten) reads like this: (curve of first compound, second compound 0.0316 µM) less than 6.50; (curve of first compound, second compound 0.1 µM) less than 6.50; (curve of first compound, second compound 0.316 µM) less than 6.50; (curve of first compound, second compound 1 µM) less than 6.50; (curve of first compound, second compound 3.16 µM) 8.13; (curve of first compound, second compound 10 µM) greater than 9.00. Further, the viability, T/C (usually the result in the treated group divided by that in the control group, in per cent) reads like this: (second compound 0.0316 µM, first compound 0.000999 µM) 90.2%; (second compound 0.0316 µM, first compound 0.00316 µM) 79%; (second compound 0.0316 µM, first compound 0.00999 µM) 91.5%; (second compound 0.0316 µM, first compound 0.0316 µM) 90.2%; (second compound 0.0316 µM, first compound 0.0999 µM) 91.4%; (second compound 0.0316 µM, first compound 0.316 µM) 80.8%. The viability, T/C runs as follows: (second compound 0.1 µM, first compound 0.000999 µM) 74.4%; (second compound 0.1 µM, first compound 0.00316 µM) 91.7%; (second compound 0.1 µM, first compound 0.00999 µM) 75.8%; (second compound 0.1 µM, first compound 0.0316 µM) 77.3%; (second compound 0.1 µM, first compound 0.0999 µM) 78.9%; (second compound 0.1 µM, first compound 0.316 µM) 69.9%. Also, the viability, T/C (second compound 0.316 µM, first compound 0.000999 µM) is 63.6%; the viability, T/C (second compound 0.316 µM, first compound 0.00316 µM) was 70.5%; the viability, T/C (second compound 0.316 µM, first compound 0.00999 µM) was 64.8%; the viability, T/C (second compound 0.316 µM, first compound 0.0316 µM) is 62.7%; the viability, T/C (second compound 0.316 µM, first compound 0.0999 µM) is 56.2%; the viability, T/C (second compound 0.316 µM, first compound 0.316 µM) was 68.7%. In addition, the viability, T/C is 49.3% (second compound 1 µM, first compound 0.000999 µM); 61.2% (second compound 1 µM, first compound 0.00316 µM); 74% (second compound 1 µM, first compound 0.00999 µM); 51.8% (second compound 1 µM, first compound 0.0316 µM); 52.8% (second compound 1 µM, first compound 0.0999 µM); 48.5% (second compound 1 µM, first compound 0.316 µM). In addition, the viability, T/C is 45.4% (second compound 3.16 µM, first compound 0.000999 µM); 63.9% (second compound 3.16 µM, first compound 0.00316 µM); 48.3% (second compound 3.16 µM, first compound 0.00999 µM); 45.3% (second compound 3.16 µM, first compound 0.0316 µM); 45.4% (second compound 3.16 µM, first compound 0.0999 µM); 40% (second compound 3.16 µM, first compound 0.316 µM). The viability, T/C runs as follows: (second compound 10 µM, first compound 0.000999 µM) 42.8%; (second compound 10 µM, first compound 0.00316 µM) 48.4%; (second compound 10 µM, first compound 0.00999 µM) 39.2%; (second compound 10 µM, first compound 0.0316 µM) 34.8%; (second compound 10 µM, first compound 0.0999 µM) 38.1%; (second compound 10 µM, first compound 0.316 µM) 33.5%.

Turning to `CC[C@@]1(O)C(=O)OCc2c1cc1n(c2=O)Cc2cc3c(CN(C)C)c(O)ccc3nc2-1`, the viability, T/C runs as follows: (compound 0.000999 µM) 103% and 99% and 108%; (compound 0.00316 µM) 99.1% and 96.4% and 81%; (compound 0.00999 µM) 89.2% and 94.7% and 93%; (compound 0.0316 µM) 64.6% and 100% and 90.4%; (compound 0.0999 µM) 54.2% and 66.9% and 58.7%; (compound 0.316 µM) 31.3% and 35.5% (2×). The pIC50 (curve of compound) is 6.99 and 6.73 and 6.81.

`CC1COCCN1c1cc(C2(S(C)(=N)=O)CC2)nc(-c2ccnc3[nH]ccc23)n1` (stereo not drawn): the viability, T/C (compound 0.0316 µM) was 91.4% and 102% and 101%; the viability, T/C (compound 0.1 µM) is 98.7% and 102% and 97.1%; the viability, T/C (compound 0.316 µM) is 93.1% and 96.5% and 101%; the viability, T/C (compound 1 µM) is 56% and 70.9% and 59.4%; the viability, T/C (compound 3.16 µM) was 36.2% and 34.4% and 72.4%; the viability, T/C (compound 10 µM) was 14.5% and 16.4% and 12.8%. For the same compound, the negative-log IC50 (pIC50) (curve of compound) was 5.81 and 5.71 and 5.40.

`CC(C)n1c(=O)n(C)c2cnc3cc(F)c(-c4ccc(OCCCN5CCCCC5)nc4)cc3c21`: the viability, T/C (compound 0.0316 µM) was 91.6% and 91.4% and 87.6%; the viability, T/C (compound 0.1 µM) is 84.9% and 80% and 85%; the viability, T/C (compound 0.316 µM) is 92.1% and 95.7% and 88.2%; the viability, T/C (compound 1 µM) is 91.2% and 77.1% and 86.4%; the viability, T/C (compound 3.16 µM) was 82.5% and 93.8% and 83.5%; the viability, T/C (compound 10 µM) was 78.8% and 75.8% and 72.5%. Further, the pIC50 (curve of compound) was less than 5.00.

For `CC(C)(O)C1CCC(Nc2ccc3ncc(-c4cccc(C(F)(F)F)c4)n3n2)CC1` (stereo not drawn), the viability, T/C is, setting by setting: (compound 0.0316 µM) 95.2% and 95.5% and 94.6%; (compound 0.1 µM) 110% and 90.6% and 87.2%; (compound 0.316 µM) 83.9% and 93.9% and 92.1%; (compound 1 µM) 84.3% and 91.6% and 77.9%; (compound 3.16 µM) 53.8% and 62.9% and 60.7%; (compound 10 µM) 57.8% and 57.9% and 56.4%. Where the note is “curve of compound”, the pIC50 was less than 5.00.

On to `Nc1ccn(C2OC(CO)C(O)C2(F)F)c(=O)n1` (stereo not drawn), for which the viability, T/C runs as follows: (compound 0.0316 µM) 76.8% and 70.1% and 75.6%; (compound 0.1 µM) 16.7% and 16.1% and 15.4%; (compound 0.316 µM) 11.3% and 7.32% and 9.64%; (compound 1 µM) 10.3% and 9.3% and 8.42%; (compound 3.16 µM) 10.7% and 12.2% and 11.5%; (compound 10 µM) 13% and 12.5% and 11.1%. Moreover, the pIC50 (curve of compound) is 7.28 and 7.32 and 7.29.

On to `COc1cccc2c1C(=O)c1c(O)c3c(c(O)c1C2=O)CC(O)(C(=O)CO)CC3OC1CC(N)C(O)C(C)O1` (stereo not drawn), for which the viability, T/C by setting is: (compound 0.0316 µM) 94.5% and 91.5% and 81.9%; (compound 0.1 µM) 59.7% and 68.6% and 56.4%; (compound 0.316 µM) 51.7% and 52.9% and 48.3%; (compound 1 µM) 16% and 16.9% and 15.1%; (compound 3.16 µM) 4.15% and 1.93% and 4.74%; (compound 10 µM) 0.3% and 0.31% and 0.43%. In addition, the pIC50 (curve of compound) is 6.67 and 6.55 and 6.71.

Take `C=CCn1c(=O)c2cnc(Nc3ccc(N4CCN(C)CC4)cc3)nc2n1-c1cccc(C(C)(C)O)n1`: the viability, T/C (compound 0.0316 µM) was 101% and 96.5% and 125%; the viability, T/C (compound 0.1 µM) is 85.2% and 103% and 79.7%; the viability, T/C (compound 0.316 µM) is 58% and 60.3% and 58.8%; the viability, T/C (compound 1 µM) was 20.7% and 23% and 14.2%; the viability, T/C (compound 3.16 µM) is 7.67% and 7.8% and 5.95%; the viability, T/C (compound 10 µM) was 5.42% and 4.01% and 4.35%. In addition, the pIC50 (curve of compound) is 6.41 and 6.34 and 6.52.

As for `Cc1[nH]c2ccccc2c1CCNCc1ccc(/C=C/C(=O)NO)cc1`, the viability, T/C is 113% and 108% and 97.3% (compound 0.000999 µM); 115% and 82.3% and 88% (compound 0.00316 µM); 94.8% and 93.9% and 87% (compound 0.00999 µM); 81.7% and 86% and 77.5% (compound 0.0316 µM); 89.2% and 50.2% and 66% (compound 0.0999 µM); 14.2% and 10.4% and 16.8% (compound 0.316 µM). Further, the negative logarithm of the IC50 (pIC50) (curve of compound) is 6.77 and 6.99 and 6.86.

The values are drawn from PubChem BioAssay AID2060509 (Molecular Pharmacology Branch, DTP, NCI, 2025).
